Key:
[1] = biological target: nuclear factor-kappa B (NF-kB)-inducing kinase (NIK) (Homo sapiens (Human), UniProt Q99558); experiment: NIK enzyme inhibition assay (Transcreener ADP, NIK ADP-FP); format: biochemical; details: purified NIK 0.5 nM, 10 μM ATP, fluorescence polarization; read-out: NIK ADP-FP (Ki μM)
[2] = tested on: REL-A (p65) nuclear translocation, HeLa cells; experiment: REL-A (p65) nuclear translocation assay in HeLa cells (classical NF-kB signaling, TNF-α stimulated); format: cell-based; details: Homo sapiens, 0.5 h; HeLa cells, 10 ng/mL TNF-α for 30 minutes; read-out: REL-A HeLa Transloc Assay (IC50)
Description: (§1) Several assays were developed to profile the cellular activities of NIK inhibitors.
(§2) (2) A second set of cell assay are used to define the selectivity of NIK inhibitors toward inhibition of classical vs. non-classical NF-kB signaling and rely on quantification of the nuclear translocation of p52 (NF-kB2) and REL-A (p65) using high content cellular imaging. For the p52 (non-classical NF-kB signaling) nuclear translocation assay, HeLa cells are treated with different concentrations of compounds (0.2% DMSO final) in medium containing 10% fetal bovine serum and then stimulated with 100 ng/mL of an anti-lymphotoxin beta receptor antibody (R&D Systems) for 5 hours. In the REL-A nuclear translocation assay, HeLa cells are incubated with compounds (0.2% DMSO final) for 4.5 hours in medium containing 10% fetal bovine serum before stimulating them with 10 ng/mL tumor necrosis factor (TNF)-α (R&D Systems) for 30 minutes. Cells are fixed with 4% paraformaldehyde, permeabilized by adding 0.1% Triton X-100 in phosphate buffered saline, and then are incubated with either 2 ug/mL anti-p52 antibody (Millipore) or 400 ng/mL anti-REL-A (p65) antibody (Santa Cruz Biotechnology). Finally, the cells are incubated with an Alexa488-labeled secondary antibody (Invitrogen) and DRAQ5 DNA stain (Biostatus). Imaging is carried out using an Opera reader (Perkin Elmer) and data are analyzed with the aid of Acapella software (Perkin Elmer). The p52 or REL-Atranslocation into the nucleus is quantified by the ratio of the nuclear to cytoplasmic signal intensity. […] The compounds in listed in Table 1 have the corresponding inhibitory value (IC50 in micromolar) for NIK p52 Translocation Assay as set forth in Table 2.
(§3) The compounds in listed in Table 1 have the corresponding inhibitory values (IC50 in micromolar) for the Translocation Assays as set forth in Table 2.

[3] = tested on: p52 (NF-kB2) nuclear translocation, HeLa cells; experiment: p52 (NF-kB2) nuclear translocation assay in HeLa cells (non-classical NF-kB signaling, anti-lymphotoxin beta receptor antibody stimulated); format: cell-based; details: Homo sapiens, 100 ng/mL anti-lymphotoxin beta receptor antibody for 5 hours, read-out: p52 HeLa Transloc Assay (IC50)
Description: as §1, §2, §3

Chain of nuclear factor-kappa B (NF-kB)-inducing kinase (NIK) (Q99558 whole entry): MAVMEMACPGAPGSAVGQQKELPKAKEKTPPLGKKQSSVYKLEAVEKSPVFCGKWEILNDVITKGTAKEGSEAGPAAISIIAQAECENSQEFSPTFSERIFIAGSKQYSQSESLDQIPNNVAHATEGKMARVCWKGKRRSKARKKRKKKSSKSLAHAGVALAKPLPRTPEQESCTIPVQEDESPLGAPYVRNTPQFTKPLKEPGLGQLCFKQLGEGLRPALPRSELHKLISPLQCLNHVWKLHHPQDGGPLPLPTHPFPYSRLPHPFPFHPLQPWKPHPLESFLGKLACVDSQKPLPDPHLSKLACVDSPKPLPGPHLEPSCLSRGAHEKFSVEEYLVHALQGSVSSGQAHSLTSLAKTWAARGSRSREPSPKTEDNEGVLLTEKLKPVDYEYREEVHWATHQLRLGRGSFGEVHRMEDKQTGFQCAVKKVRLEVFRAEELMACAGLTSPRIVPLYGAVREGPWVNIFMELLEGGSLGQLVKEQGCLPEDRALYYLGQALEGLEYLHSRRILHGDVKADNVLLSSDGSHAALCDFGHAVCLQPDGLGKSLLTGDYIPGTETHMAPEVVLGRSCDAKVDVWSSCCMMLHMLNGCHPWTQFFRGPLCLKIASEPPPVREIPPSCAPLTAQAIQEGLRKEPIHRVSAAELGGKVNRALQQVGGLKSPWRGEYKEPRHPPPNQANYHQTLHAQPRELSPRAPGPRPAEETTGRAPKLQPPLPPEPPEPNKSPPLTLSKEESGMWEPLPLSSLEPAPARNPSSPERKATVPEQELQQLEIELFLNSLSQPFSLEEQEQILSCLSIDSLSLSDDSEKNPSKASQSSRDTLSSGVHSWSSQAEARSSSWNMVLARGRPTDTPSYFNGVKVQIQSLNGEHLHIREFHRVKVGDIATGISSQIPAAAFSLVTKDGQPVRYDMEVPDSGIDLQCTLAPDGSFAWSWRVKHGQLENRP

CN1CC[C@@](O)(C#Cc2ccnc(-n3nc(C(N)=O)c4c3C[C@@]3(C)C[C@H]3C4)c2)C1=O [Compound 6, (4aS,5aR)-1-[4-[2-[(3R)-3-hydroxy-1-methyl-2-oxo-pyrroli-din-3-yl]ethynyl]-2-pyri-dyl]-5a-methyl-4,4a,5,6-tetrahydrocyclopropa[f]inda-zole-3-carboxamide]
Ki [1]: 7.78 nM | IC50 [2]: 10000 nM | IC50 [3]: 901 nM

CN1CC[C@@](O)(C#Cc2ccnc(-n3nc(C(N)=O)c4c(F)cccc43)c2)C1=O [Compound 10, 4-fluoro-1-[4-[2-[(3R)-3-hy-droxy-1-methyl-2-oxo-pyrroli-din-3-yl]ethynyl]-2-pyri-dyl]indazole-3-carboxamide]
Ki [1]: 1.19 nM | IC50 [2]: 20000 nM | IC50 [3]: 66.3 nM

CN1CC[C@@](O)(C#Cc2cccc(-n3nc(C(N)=O)c4c3OCCC4)c2)C1=O [Compound 12, 1-[3-[2-[(3R)-3-hydroxy-1-methyl-2-oxo-pyrrolidin-3-yl]ethynyl]phenyl]-5,6-dihydro-4H-pyrano[2,3-c]pyrazole-3-carboxamide]
Ki [1]: 1.56 nM | IC50 [2]: 20000 nM | IC50 [3]: 187 nM

COc1ccc2c(c1)c(C(N)=O)nn2-c1cccc(C#C[C@]2(O)CCN(C)C2=O)c1 [Compound 14, 1-[3-[2-[(3R)-3-hydroxy-1-methyl-2-oxo-pyrrolidin-3-yl]ethynyl]phenyl]-5-methoxy-indazole-3-carboxamide]
Ki [1]: 0.05 nM | IC50 [2]: 20000 nM | IC50 [3]: 67.8 nM

CN1CC[C@@](O)(C#Cc2cccc(-n3nc(C(N)=O)c4c3CCN(C(=O)OC(C)(C)C)C4)c2)C1=O [Compound 16, tert-butyl 3-carbamoyl-1-[3-[2-[(3R)-3-hydroxy-1-methyl-2-oxo-pyrrolidin-3-yl]ethynyl]phe-nyl]-6,7-dihydro-4H-pyrazolo [4,3-c]pyridine-5-carboxylate]
Ki [1]: 0.9 nM | IC50 [2]: 20000 nM | IC50 [3]: 125 nM

CN1CC[C@@](O)(C#Cc2cc(F)cc(-n3nc(C(N)=O)c4cccnc43)c2)C1=O [Compound 18, 1-[3-fluoro-5-[2-[(3R)-3-hy-droxy-1-methyl-2-oxo-pyrroli-din-3-yl]ethynyl]phenyl] pyrazolo[3,4-b]pyridine-3-carboxamide]
Ki [1]: 0.86 nM | IC50 [2]: 20000 nM | IC50 [3]: 138 nM

COc1ccc2c(C(N)=O)nn(-c3cccc(C#C[C@]4(O)CCN(C)C4=O)c3)c2c1 [Compound 22, 1-[3-[2-[(3R)-3-hydroxy-1-methyl-2-oxo-pyrrolidin-3-yl]ethynyl]phenyl]-6-methoxy-indazole-3-carboxamide]
Ki [1]: 0.34 nM | IC50 [2]: 20000 nM | IC50 [3]: 94.8 nM

Cc1nc2c(s1)c(C(N)=O)nn2-c1cccc(C#C[C@]2(O)CCN(C)C2=O)c1 [Compound 25, 1-[3-[2-[(3R)-3-hydroxy-1-methyl-2-oxo-pyrrolidin-3-yl]ethynyl]phenyl]-5-methyl-pyrazolo[3,4-d]thiazole-3-carboxamide]
Ki [1]: 0.41 nM | IC50 [2]: 20000 nM | IC50 [3]: 44.6 nM

Cc1nnc([C@](C)(O)C#Cc2cccc(-n3nc(C(N)=O)c4ccccc43)c2)o1 [Compound 26, 1-[3-[(3R)-3-hydroxy-3-(5-methyl-1,3,4-oxadiazol-2-yl)but-1-ynyl]phenyl]indazole-3-carboxamide]
Ki [1]: 2.52 nM | IC50 [2]: 20000 nM | IC50 [3]: 1130 nM

CN1CCC[C@@](O)(C#Cc2cccc(-n3nc(C(N)=O)c4ccc(F)cc43)c2)C1=O [Compound 27, 6-fluoro-1-[3-[2-[(3R)-3-hy-droxy-1-methyl-2-oxo-3-pipe-ridyl]ethynyl]phenyl]inda-zole-3-carboxamide]
Ki [1]: 3.75 nM | IC50 [2]: 20000 nM | IC50 [3]: 322 nM

CN1CC[C@@](O)(C#Cc2cc(-n3nc(C(N)=O)c4cccnc43)ccc2F)C1=O [Compound 31, 1-[4-fluoro-3-[2-[(3R)-3-hy-droxy-1-methyl-2-oxo-pyrroli-din-3-yl]ethynyl]phenyl] pyrazolo[3,4-b]pyridine-3-carboxamide]
Ki [1]: 0.62 nM | IC50 [2]: 20000 nM | IC50 [3]: 67.1 nM

CN1CC[C@@](O)(C#Cc2cccc(-n3nc(C(N)=O)c4cc(CO)ccc43)c2)C1=O [Compound 35, 5-(hydroxymethyl)-1-[3-[2-[(3R)-3-hydroxy-1-methyl-2-oxo-pyrrolidin-3-yl]ethynyl]phenyl]indazole-3-carbox-amide]
Ki [1]: 1.48 nM | IC50 [2]: 20000 nM | IC50 [3]: 737 nM

CN1CC[C@@](O)(C#Cc2cc(-n3nc(C(N)=O)c4cccnc43)cc(C(F)(F)F)c2)C1=O [Compound 36, 1-[3-[2-[(3R)-3-hydroxy-1-methyl-2-oxo-pyrrolidin-3-yl]ethynyl]-5-(trifluorometh-yl)phenyl]pyrazolo[3,4-b] pyridine-3-carboxamide]
Ki [1]: 5.53 nM | IC50 [2]: 20000 nM | IC50 [3]: 164 nM

CN1CC[C@@](O)(C#Cc2cccc(-n3nc(C(N)=O)c4c(Cl)cccc43)c2)C1=O [Compound 39, 4-chloro-1-[3-[2-[(3R)-3-hydroxy-1-methyl-2-oxo-pyrroli-din-3-yl]ethynyl]phenyl] indazole-3-carboxamide]
Ki [1]: 1.21 nM | IC50 [2]: 20000 nM | IC50 [3]: 108 nM

CN1CC[C@@](O)(C#Cc2cccc(-n3nc(C(N)=O)c4cc(CC#N)ccc43)c2)C1=O [Compound 41, 5-(cyanomethyl)-1-[3-[2-[(3R)-3-hydroxy-1-methyl-2-oxo-pyrrolidin-3-yl]ethynyl]phenyl]indazole-3-carboxamide]
Ki [1]: 0.32 nM | IC50 [2]: 20000 nM | IC50 [3]: 52.5 nM

CN1CC[C@@](O)(C#Cc2cccc(-n3nc(C(N)=O)c4cc(C#N)ccc43)c2)C1=O [Compound 42, 5-cyano-1-[3-[2-[(3R)-3-hy-droxy-1-methyl-2-oxo-pyrroli-din-3-yl]ethynyl]phenyl] indazole-3-carboxamide]
Ki [1]: 0.64 nM | IC50 [2]: 20000 nM | IC50 [3]: 392 nM

C[C@@H](O)c1ccc2c(c1)c(C(N)=O)nn2-c1cccc(C#C[C@]2(O)CCN(C)C2=O)c1 [Compound 43, 5-[(1R)-1-hydroxyethyl]-1-[3-[2-[(3R)-3-hydroxy-1-meth-yl-2-oxo-pyrrolidin-3-yl]ethynyl]phenyl]indazole-3-carboxamide]
Ki [1]: 1.6 nM | IC50 [2]: 20000 nM | IC50 [3]: 921 nM

CN1CC[C@@](O)(C#Cc2cc(Cl)cc(-n3nc(C(N)=O)c4cccnc43)c2)C1=O [Compound 44, 1-[3-chloro-5-[2-[(3R)-3-hy-droxy-1-methyl-2-oxo-pyrroli-din-3-yl]ethynyl]phenyl] pyrazolo[3,4-b]pyridine-3-carboxamide]
Ki [1]: 0.5 nM | IC50 [2]: 20000 nM | IC50 [3]: 62 nM

CN1CC[C@@](O)(C#Cc2cccc(-n3nc(C(N)=O)c4ccc(C#N)cc43)c2)C1=O [Compound 46, 6-cyano-1-[3-[2-[(3R)-3-hy-droxy-1-methyl-2-oxo-pyrroli-din-3-yl]ethynyl]phenyl] indazole-3-carboxamide]
Ki [1]: 0.5 nM | IC50 [2]: 20000 nM | IC50 [3]: 123 nM

CNc1nccc2c1c(C(N)=O)nn2-c1cccc(C#C[C@]2(O)CCN(C)C2=O)c1 [Compound 49, 1-[3-[2-[(3R)-3-hydroxy-1-methyl-2-oxo-pyrrolidin-3-yl]ethynyl]phenyl]-4-(meth-ylamino)pyrazolo[4,3-c]pyri-dine-3-carboxamide]
Ki [1]: 0.05 nM | IC50 [2]: 8000 nM | IC50 [3]: 7.7 nM
